Results: patent US20170189372A1, “USE OF SUBSTITUTED CHROMAN COMPOUNDS” (INSTYTUT BIOLOGII MEDYCZNEJ, priority 2014, published 2017)

Key:
[1] = tested on: reporter cell line for interleukin-4 (EL-4 cells); experiment: FCC test, expanded version, IL-4 reporter cell line; format: cell-based, mouse
Experimental: (§1) Development of reporter cell lines was described previously (Ulleras, E., D. Trzaska, et al. (2005); “Development of the “Cell Chip”: a new in vitro alternative technique for immunotoxicity testing”, Toxicology 206(2): 245-56). Briefly, EL-4 cells were stably transfected with transgene consisting of promoter regions from mouse β-actin, interleukin-2 (IL-2), interleukin-4 (IL-4), interferon-γ (IFN-γ), and interleukin-10 (IL-10) and ORF for EGFP. Reporter cells were cultured at density 5×10^5-1×10^6 cells/ml in a humidified atmosphere with 5% CO2 at 37° C. in RPMI 1640 with Glutamax supplemented with 20% FCS and 0.5 μg/ml G418.
(§2) Compounds after primary screening were considered to be hits when FCC parameter calculated after primary screening was ≦−5000. After secondary screening area under the curve (A) of FCC parameter versus relative concentration was calculated (maximum concentration used, i.e. 50 μg/ml, was assumed to be 1). […]
(§3) Flavonoids selected after preliminary screening were undergoing FCC testing using 5 reporter cell lines: for β-actin, interleukin-2 (IL-2), interleukin-4 (IL-4), interferon-γ (IFN-γ) and interleukin-10 (IL-10). The tested concentrations were in the range from 1.56 to 50 μg/ml.
(§4) Using flow cytometry mean fluorescence intensity (columns, left Y axis) and cell viability (dots, the right Y-axis) was determined for all the experimental points and normalized relative to the control—cells incubated with medium with PMA and ionomycin. The data is the mean of the three experiments ±SEM. The statistical significance of differences between means were determined: * p<0.05, ** p<0.01, *** p<0.001 versus control. Values above the graph represent the area under the curve showing the relationship of the FCC parameter and the relative compound concentration.

[2] = tested on: reporter cell line for IL-2 (EL-4 cells); experiment: FCC primary screening with IL-2 reporter cells; format: cell-based, mouse; settings: relative viability×(relative fluorescence−100); PMA and ionomycin activated, compound 0.4 μg/ml, 18 h
Experimental: as §1
(§5) When applicable, cells and reagents handling was performed by JANUS Automated Workstation (PerkinElmer, Waltham, Mass., USA). Cells were seeded at a density of 5×10^4 per well in 96-well plates. In the primary screening reporter cells for IL-2 activated with PMA (50 ng/ml) and ionomycin (1 μM) were seeded in a 96-well plate and incubated with compounds from the chemical library in a total volume of 100 μL at 37° C. in a humidified atmosphere with 5% CO2 for 18 h. Concentration of compounds was 0.4 μg/ml. The final DMSO concentration was 0.2%, DMSO is not cytotoxic towards EL-4 reporter cells at this concentration. Control samples consisted of cells in medium with 0.2% DMSO with PMA (50 ng/ml) and ionomycin (1 μM). Following incubation cells were analyzed by flow cytometry. Viability was assessed in parallel to the level of EGFP-mediated fluorescence.
Selection of compounds was based on FCC parameters calculated using the following formula:
FCC parameter=relative viability×(relative fluorescence−100)
Compounds after primary screening were considered to be hits when FCC parameter calculated after primary screening was ≦−5000. After secondary screening area under the curve (A) of FCC parameter versus relative concentration was calculated (maximum concentration used, i.e. 50 μg/ml, was assumed to be 1).

[3] = tested on: reporter cell line for interleukin-2 (EL-4 cells); experiment: FCC test, expanded version, IL-2 reporter cell line; format: cell-based, mouse
Experimental: as §1, §2, §3, §4

[4] = tested on: IL-2 production by Jurkat cells; experiment: ELISA for IL-2 in Jurkat cells; format: cell-based
Experimental: Jurkat cells were seeded in 48-well plates at a concentration of 1 million/ml. Cells activated with PMA (50 ng/ml) and ionomycin (1 uM) or resting were incubated with 50 selected flavonoids in a concentration of 10 μg/ml and 50 μg/ml for 24 hours in a humidified atmosphere with 5% CO 2 at 37° C. As a control, the respective cells in the medium or in a medium with PMA and ionomycin were employed. After incubation, cells were centrifuged (8 minutes, 1300 rpm), and the cell-free supernatants were stored at −20° C. until measurements. IL-2 was assessed using a commercially available ELISA kits according to the manufacturer's instructions. Each experiment was repeated 3 times.
FCC assay and ELISA assay were repeated three times. Relative data were presented as the means±SEM. […] Statistical significance of differences observed in both assays was tested with ANOVA followed by post hoc Dunnett test using GraphPad software (La Jolla, Calif., USA). In statistical analysis non-relative data were used

[5] = tested on: reporter cell line for β-actin (EL-4 cells); experiment: FCC test, expanded version, β-actin reporter cell line; format: cell-based, mouse; settings: PMA and ionomycin, 1.56 to 50 μg/ml, 50 μg/ml assumed to be 1
Experimental: as §1, §2, §3, §4

reporter cell line EL-4 = experiment: Viability of reporter cells in FCC assay; format: cell-based, mouse; settings: at concentrations up to 25 mg/ml
Experimental: as §5
as §4, with “Values above the graph represent the area under the curve showing the relationship of the FCC parameter and the relative compound concentration.” left out

[6] = tested on: reporter cell line for interferon-γ (EL-4 cells); experiment: FCC test, expanded version, IFN-γ reporter cell line; format: cell-based, mouse; settings: PMA and ionomycin, 1.56 to 50 μg/ml, 50 μg/ml assumed to be 1
Experimental: as §1, §2, §3, §4

[7] = tested on: reporter cell line for interleukin-10 (EL-4 cells); experiment: FCC test, expanded version, IL-10 reporter cell line; format: cell-based, mouse; settings: IL-10 reporter line; PMA and ionomycin; 1.56 to 50 μg/ml, 50 μg/ml assumed to be 1
Experimental: as §1, §2, §3, §4

Structure (SMILES) | decrease in EGFP-mediated fluorescence ([1]; reporter cell line for IL 4, 25 μg/ml) | FCC parameter (IL-2 screening) [2] | inhibition of PMA and ionomycin induced EGFP-mediated fluorescence (in words) ([3]; FCC test, reporter cell lines not specified, judged by area under the curve) | decrease in EGFP-mediated fluorescence ([3]; reporter cell line for IL-2, 25 μg/ml) | inhibition at 10 µg/mL ([4]; Homo sapiens, 10 μg/ml, Jurkat cells, PMA and ionomycin, 24 hours) | inhibition at 50 µg/mL ([4]; Homo sapiens, 50 μg/ml, Jurkat cells, PMA and ionomycin, 24 hours) | inhibition of PMA and ionomycin induced IL-2 production by ELISA (in words) ([4]; concentration not given) | The area under the curve showing the relationship between the FCC parameter and compound concentration, AKT [5] | cytotoxicity in the reporter cell line EL-4 (reporter cell line EL-4) | The area under the curve showing the relationship between the FCC parameter and compound concentration, IL-4 ([1]; IL-4 reporter line, PMA and ionomycin, 1.56 to 50 μg/ml, 50 μg/ml assumed to be 1) | The area under the curve showing the relationship between the FCC parameter and compound concentration, IL-2 ([3]; IL-2 reporter line, PMA and ionomycin, 1.56 to 50 μg/ml, 50 μg/ml assumed to be 1) | The area under the curve showing the relationship between the FCC parameter and compound concentration, IFN [6] | Inhibition of IL-2 production (ELISA) ([4]; 10 μg/ml, Jurkat cells, PMA and ionomycin, 24 hours) | Inhibition of IL-2 production (ELISA) ([4]; 50 μg/ml, Jurkat cells, PMA and ionomycin, 24 hours) | The area under the curve showing the relationship between the FCC parameter and compound concentration, IL-10 [7]
CC(=O)Oc1cc2c(cc1Cl)C(C)(C)CC(C)(c1cc(Cl)c(OC(C)=O)cc1OC(C)=O)O2 (centres unmarked) [Compound 12, 2-(2,4-diacetyloxy-5-chlorophenyl)-6-chloro-2,4,4-trimethylchroman-7-yl acetate] | more than 90% | −7615 | highest inhibition | more than 90% | 100% | 83% | strongly inhibited | −2936 | not cytotoxic |  |  |  |  |  | 
CC(=O)Oc1ccc2c(c1)OC(c1ccccc1)CC21CC(C)(C)NC(=S)N1 (centres unmarked) [Compound 4, 7-acetoksy-2,3,5′,6′-tetrahydro-6′,6′-dimetylo-2-fenylo-spiro[4H-1-benzopirano-4,4′(1′H)-pirymidyno]-2′(3′H)-tion] |  | −5692 |  |  |  |  |  | −104 |  | 988 | −1081 | −3521 | 27% | 44% | −1928
